According to US4202898A, “Method of treating anxiety and depression” (priority 1978, dated 1980):
Read-outs that look alike come from different tables or passages of the source.

Columns and labels:
[1] = 4 plates test (percentage of desinibition observed in the mouse); format: in vivo; settings: for change in vivo at 1 mg/kg / change in vivo at 3 mg/kg / change in vivo at 10 mg/kg / change in vivo at 30 mg/kg: po, 1 h; for change in vivo at 1 mg/kg: read-out: percentage of desinibition (ACTIVITY, 1 mg/kg p.o.); for change in vivo at 3 mg/kg: read-out: percentage of desinibition (ACTIVITY, 3 mg/kg p.o.); for change in vivo at 10 mg/kg: read-out: percentage of desinibition (ACTIVITY, 10 mg/kg p.o.); for change in vivo at 30 mg/kg: 30 mg/kg p.o.
Description: This activity has been tested by the 4 plates test (Aron C. These de Medecine--Paris 1970; Boissier JR--Simon P. and Aron C., A new method for rapid screening of minor tranquillizers in mice, Europ. J. Pharmacol. 1968, 4, 145-151). The substances are administered in several doses (0.3, 1.0, 3.0, 10 and 30 mg/kg) per os, 60 minutes before the test.
The results, which give the percentage of desinibition observed in the mouse, are shown as Examples III-XVIII. At the same doses, the greater the percentage the higher the activity of the piperazine. The results for two known anxiolytic agents are set forth in Examples XIX and XX.

LD 50 toxicity, oral = settings: in vivo, p.o., tested as hydrochlorides
[2] = mouse, 1 mg/kg p.o., 60 minutes before the test
[3] = mouse, 3 mg/kg p.o., 60 minutes before the test
[4] = mouse, 10 mg/kg p.o., 60 minutes before the test
[5] = mouse, 60 minutes before the test

Row | Compound | change in vivo at 1 mg/kg [1, 2] [%] | change in vivo at 3 mg/kg [1, 3] [%] | change in vivo at 10 mg/kg [1, 4] [%] | percentage of desinibition (ACTIVITY, 0.3 mg/kg p.o.) [1, 5] | change in vivo at 30 mg/kg [1, 5] [%] | LD50 (LD 50 toxicity, oral) [mg/kg] | change in vivo at 3 mg/kg ([1]; Mus musculus) [%] | change in vivo at 10 mg/kg ([1]; Mus musculus) [%] | change in vivo at 1 mg/kg ([1]; Mus musculus) [%]
1 | CNC1=Nc2ccc(Cl)cc2C(c2ccccc2)=[N+]([O-])C1 [chlordiazepozide, reference compound] | 43 | 86 | 24 | – | – | – | – | – | –
2 | O=C(Nc1ccccc1)OCCN1CCN(c2cccc(SC(F)(F)F)c2)CC1 [Example 18] | 23 | 63 | 304 | +15% | 532 | – | – | – | –
3 | O=C(Nc1ccccc1)OCCN1CCN(c2cccc(C(F)(F)F)c2)CC1 [Example 17] | – | – | 9 | – | 30 | – | – | – | –
4 | COc1ccc(Cl)cc1C(=O)OCCN1CCN(c2cccc(C(F)(F)F)c2)CC1 [Example 12] | – | – | 65 | – | – | 1800 | – | – | –
5 | Nc1ccccc1C(=O)OCCN1CCN(c2cccc(C(F)(F)F)c2)CC1 [Example 11] | 35 | 63 | 182 | – | 336 | 3000 | – | – | –
6 | CCCCNC(=O)OCCN1CCN(c2cccc(SC(F)(F)F)c2)CC1 [Example 15] | 3 | 109 | 64 | – | – | – | – | – | –
7 | OCCN1CCN(c2cccc(OC(F)(F)F)c2)CC1 [Example 5] | 8 | 9 | 14 | – | 88 | 575 | – | – | –
8 | OCCN1CCN(c2cccc(SC(F)(F)F)c2)CC1 [Example 3, [4-(3'-trifluoromethylthiophenyl)-piperazino]-ethanol] | 190 | 230 | 335 | +118% | 248 | 500 | – | – | –
9 | CNC(=O)OCCN1CCN(c2cccc(SC(F)(F)F)c2)CC1 [Example 13] | – | – | – | – | – | – | 49 | 152 | –
10 | CN(C)C(=O)OCCN1CCN(c2cccc(SC(F)(F)F)c2)CC1 [Example 14] | – | – | – | – | – | – | – | 3 | 2
11 | OCCN1CCN(c2cccc(Cl)c2)CC1 [Example 6] | 23 | 50 | 54 | – | – | 750 | – | – | –
12 | CCCC(C)(COC(N)=O)COC(N)=O [meprobamate, reference compound] | – | 53 | 38 | – | 142 | – | – | – | –
13 | CC(=O)OCCN1CCN(c2cccc(SC(F)(F)F)c2)CC1 [Example 8, (4-m-trifluoromethylthiophenyl-piperazino)-ethyl acetate] | 88 | 191 | 312 | +27% | 154 | 510 | – | – | –
14 | OCCN1CCN(c2ccccc2)CC1 [Example 7] | 39 | 2 | – | – | – | 525 | – | – | –
15 | OCCN1CCN(c2cccc(C(F)(F)F)c2)CC1 [Example 4] | – | – | 174 | – | 226 | 740 | – | – | –
16 | CC(C)(C)C(=O)OCCN1CCN(c2cccc(SC(F)(F)F)c2)CC1 [Example 21] | 73 | 122 | 196 | – | – | – | – | – | –
17 | CC(=O)OCCN1CCN(c2cccc(C(F)(F)F)c2)CC1 [Example 9] | 24 | 49 | 220 | – | 156 | 925 | – | – | –
